This test deals with MV-4-11 cells. As to the kind of experiment: Gene expression microarray analysis (Affymetrix PrimeView) and GSEA. Format: cell-based, human. The arrangement: RFU PODN (11730768_x_at) / Fold change /veh PODN (11730768_x_at) / RFU LINC00158 (11744669_a_at) / Fold change /veh LINC00158 (11744669_a_at) / RFU DUSP10 (11751237_a_at) / Fold change /veh DUSP10 (11751237_a_at) / RFU ID3 (11757404_x_at) / Fold change /veh ID3 (11757404_x_at) / RFU PLEKHG5 (11737974_s_at) / Fold change /veh PLEKHG5 (11737974_s_at) / RFU LRRC4B (11730491_at) / Fold change /veh LRRC4B (11730491_at) / RFU GIMAP4 (11747438_a_at) / Fold change /veh GIMAP4 (11747438_a_at) / RFU KRT8 (11758183_x_at) / Fold change /veh KRT8 (11758183_x_at) / RFU CNN1 (11734310_a_at) / Fold change /veh CNN1 (11734310_a_at) / RFU VPS37D (11726825_at) / Fold change /veh VPS37D (11726825_at) / RFU C10orf10 (11716522_x_at) / Fold change /veh C10orf10 (11716522_x_at) / RFU KIR2DL2 /// KIR2DL4 /// KIR2DL5A /// KIR2DL5B /// KIR2DS1 /// KIR2DS2 /// KIR2DS3 /// KIR2DS4 /// KIR3DL3 /// KIR3DL3 /// KIR3DS1 (11738374_at) / Fold change /veh KIR2DL2 /// KIR2DL4 /// KIR2DL5A /// KIR2DL5B /// KIR2DS1 /// KIR2DS2 /// KIR2DS3 /// KIR2DS4 /// KIR3DL3 /// KIR3DL3 /// KIR3DS1 (11738374_at) / RFU C1QL1 (11718748_at) / Fold change /veh C1QL1 (11718748_at) / RFU TMPRSS4 (11747572_a_at) / Fold change /veh TMPRSS4 (11747572_a_at) / RFU HAMP (11756126_x_at) / Fold change /veh HAMP (11756126_x_at) / RFU RNFT2 (11725882_a_at) / Fold change /veh RNFT2 (11725882_a_at) / RFU NR4A2 (11747474_a_at) / Fold change /veh NR4A2 (11747474_a_at) / RFU ABCC12 (11746883_a_at) / Fold change /veh ABCC12 (11746883_a_at) / RFU TMEM136 (11760407_x_at) / Fold change /veh TMEM136 (11760407_x_at) / RFU CLDN22 /// WWC2 (11732394_at) / Fold change /veh CLDN22 /// WWC2 (11732394_at) / RFU HLA-DPB1 (11760878_x_at) / Fold change /veh HLA-DPB1 (11760878_x_at) / RFU SPINT1 (11716480_a_at) / Fold change /veh SPINT1 (11716480_a_at) / RFU GAP43 (11754022_s_at) / Fold change /veh GAP43 (11754022_s_at) / RFU A4GNT (11735810_at) / Fold change /veh A4GNT (11735810_at) / RFU PRB3 (11715151_x_at) / Fold change /veh PRB3 (11715151_x_at) / RFU TUBB4B (11761932_at) / Fold change /veh TUBB4B (11761932_at) / RFU CAPN14 (11732068_a_at) / Fold change /veh CAPN14 (11732068_a_at) / RFU TMCC2 (11721928_a_at) / Fold change /veh TMCC2 (11721928_a_at) / RFU IRGQ (11745062_a_at) / Fold change /veh IRGQ (11745062_a_at) / RFU FAM174B (11720279_a_at) / Fold change /veh FAM174B (11720279_a_at) / RFU TMPRSS4 (11748680_a_at) / Fold change /veh TMPRSS4 (11748680_a_at) / RFU FAM212B (11763350_a_at) / Fold change /veh FAM212B (11763350_a_at) / RFU PLEKHG5 (11743358_a_at) / Fold change /veh PLEKHG5 (11743358_a_at) / RFU ZSCAN30 (11745921_a_at) / Fold change /veh ZSCAN30 (11745921_a_at) / RFU CMKLR1 (11741424_a_at) / Fold change /veh CMKLR1 (11741424_a_at) / RFU LOC101060620 /// MAPK8IP1 (11723275_at) / Fold change /veh LOC101060620 /// MAPK8IP1 (11723275_at) / RFU SPTSSB (11747773_x_at) / Fold change /veh SPTSSB (11747773_x_at) / RFU PRSS12 (11739890_at) / Fold change /veh PRSS12 (11739890_at) / RFU BIN1 (11741810_x_at) / Fold change /veh BIN1 (11741810_x_at) / RFU WNT11 (11732464_a_at) / Fold change /veh WNT11 (11732464_a_at) / RFU C10orf10 (11716521_a_at) / Fold change /veh C10orf10 (11716521_a_at) / RFU C5orf56 (11738089_at) / Fold change /veh C5orf56 (11738089_at) / RFU CYB561 (11721691_x_at) / Fold change /veh CYB561 (11721691_x_at) / RFU ANKRD19P (11752326_a_at) / Fold change /veh ANKRD19P (11752326_a_at) / RFU OR2T12 /// OR2T33 /// OR2T8 (11738714_s_at) / Fold change /veh OR2T12 /// OR2T33 /// OR2T8 (11738714_s_at) / RFU VCAN (11748164_a_at) / Fold change /veh VCAN (11748164_a_at) / RFU JSRP1 (11732532_at) / Fold change /veh JSRP1 (11732532_at) / RFU KRTAP10-11 (11738290_x_at) / Fold change /veh KRTAP10-11 (11738290_x_at) / RFU MYO3A (11730013_a_at) / Fold change /veh MYO3A (11730013_a_at) / RFU EBF3 (11725865_a_at) / Fold change /veh EBF3 (11725865_a_at) / RFU CAMK2N1 (11719241_x_at) / Fold change /veh CAMK2N1 (11719241_x_at) / RFU C5orf56 (11738088_a_at) / Fold change /veh C5orf56 (11738088_a_at) / RFU OLFML3 (11715873_a_at) / Fold change /veh OLFML3 (11715873_a_at) / RFU LOC100653217 /// NTM (11731650_a_at) / Fold change /veh LOC100653217 /// NTM (11731650_a_at) / RFU MAPK11 (11762145_a_at) / Fold change /veh MAPK11 (11762145_a_at) / RFU FIZ1 (11724087_x_at) / Fold change /veh FIZ1 (11724087_x_at) / RFU OASL (11726364_x_at) / Fold change /veh OASL (11726364_x_at) / RFU SOX15 (11748057_x_at) / Fold change /veh SOX15 (11748057_x_at) / RFU CD79A (11719716_a_at) / Fold change /veh CD79A (11719716_a_at) / RFU HIST1H1D (11736915_at) / Fold change /veh HIST1H1D (11736915_at) / RFU CASKIN2 (11723855_a_at) / Fold change /veh CASKIN2 (11723855_a_at) / RFU LOC730098 (11760151_x_at) / Fold change /veh LOC730098 (11760151_x_at) / RFU OR4N2 (11742367_at) / Fold change /veh OR4N2 (11742367_at) / RFU PRRT2 (11749266_a_at) / Fold change /veh PRRT2 (11749266_a_at) / RFU SNX32 (11753110_a_at) / Fold change /veh SNX32 (11753110_a_at) / RFU CDHR5 (11726645_a_at) / Fold change /veh CDHR5 (11726645_a_at) / RFU RCAN1 (11760418_a_at) / Fold change /veh RCAN1 (11760418_a_at) / RFU FAM167A (11723789_a_at) / Fold change /veh FAM167A (11723789_a_at) / RFU FAM26E (11764081_at) / Fold change /veh FAM26E (11764081_at) / RFU ISYNA1 (11749810_s_at) / Fold change /veh ISYNA1 (11749810_s_at) / RFU ACY1 (11761880_at) / Fold change /veh ACY1 (11761880_at) / RFU 11764098_at / Fold change /veh 11764098_at / RFU SAMD14 (11745864_x_at) / Fold change /veh SAMD14 (11745864_x_at) / RFU NPB (11741838_a_at) / Fold change /veh NPB (11741838_a_at) / RFU TMPRSS6 (11731388_a_at) / Fold change /veh TMPRSS6 (11731388_a_at) / RFU KRTAP10-2 (11738614_at) / Fold change /veh KRTAP10-2 (11738614_at) / RFU ARHGAP8 /// PRR5-ARHGAP8 (11727945_x_at) / Fold change /veh ARHGAP8 /// PRR5-ARHGAP8 (11727945_x_at) / RFU KRTAP5-7 /// NADSYN1 (11734609_at) / Fold change /veh KRTAP5-7 /// NADSYN1 (11734609_at) / RFU RASL12 (11751679_a_at) / Fold change /veh RASL12 (11751679_a_at) / RFU CDKN2B (11736163_a_at) / Fold change /veh CDKN2B (11736163_a_at) / RFU PRF1 (11729649_at) / Fold change /veh PRF1 (11729649_at) / RFU, ZNF638 /// ZNF638-IT1 / Fold change vs veh, ZNF638 /// ZNF638-IT1 / RFU, PANK3 / Fold change vs veh, PANK3 / RFU, SH3YL1 / Fold change vs veh, SH3YL1 / RFU, ZEB2 / Fold change vs veh, ZEB2 / RFU, NRIP1 / Fold change vs veh, NRIP1 / RFU, PTTG1IP / Fold change vs veh, PTTG1IP / RFU, CAPN2 / Fold change vs veh, CAPN2 / RFU, MED14 / Fold change vs veh, MED14 / RFU, SNORA58 / Fold change vs veh, SNORA58 / RFU, C1orf63 / Fold change vs veh, C1orf63 / RFU, LRRFIP1 / Fold change vs veh, LRRFIP1 / RFU, NDUFAF7 / Fold change vs veh, NDUFAF7 / RFU, SLC12A2 / Fold change vs veh, SLC12A2 / RFU, IBTK / Fold change vs veh, IBTK / RFU, ESF1 / Fold change vs veh, ESF1 / Fold change vs veh, TMEM50B / RFU, TAOK1 / Fold change vs veh, TAOK1 / RFU, ACBD3 / Fold change vs veh, ACBD3 / RFU, TMA16 / Fold change vs veh, TMA16 / RFU, RWDD3 / Fold change vs veh, RWDD3 / RFU, BCAT1 / Fold change vs veh, BCAT1 / RFU, EDEM3 / Fold change vs veh, EDEM3 / RFU, TMEM33 / Fold change vs veh, TMEM33 / RFU, WDR75 / Fold change vs veh, WDR75 / RFU, AHCTF1 / Fold change vs veh, AHCTF1 / RFU, TFRC / Fold change vs veh, TFRC / RFU, ZDHHC17 / Fold change vs veh, ZDHHC17 / RFU, NOM1 / Fold change vs veh, NOM1 / RFU, ARL8B / Fold change vs veh, ARL8B / RFU, ZBTB11 / Fold change vs veh, ZBTB11 / RFU, TAMM41 / Fold change vs veh, TAMM41 / RFU, KIAA1704 /// LOC100996395 / Fold change vs veh, KIAA1704 /// LOC100996395 / RFU, ING1 / Fold change vs veh, ING1 / RFU, TRMT61B / Fold change vs veh, TRMT61B / RFU, FUBP3 / Fold change vs veh, FUBP3 / RFU, TP53 / Fold change vs veh, TP53 / RFU, TNKS2 / Fold change vs veh, TNKS2 / RFU, ZFP14 / Fold change vs veh, ZFP14 / RFU, ACTR2 / Fold change vs veh, ACTR2 / RFU, PPP3R1 / Fold change vs veh, PPP3R1 / RFU, PIK3R1 / Fold change vs veh, PIK3R1 / RFU, HNRNPA1 / Fold change vs veh, HNRNPA1 / RFU, RNF170 / Fold change vs veh, RNF170 / RFU, ZNF28 / Fold change vs veh, ZNF28 / RFU, RNGTT / Fold change vs veh, RNGTT / RFU, OGT / Fold change vs veh, OGT / RFU, BRD1 / Fold change vs veh, BRD1 / RFU, MARS / Fold change vs veh, MARS / RFU, ZNF655 / Fold change vs veh, ZNF655 / RFU, FAHD1 / Fold change vs veh, FAHD1 / RFU, BDP1 / Fold change vs veh, BDP1 / RFU, LRRCC1 / Fold change vs veh, LRRCC1 / RFU, ARID1A / Fold change vs veh, ARID1A / RFU, ZNF146 / Fold change vs veh, ZNF146 / RFU, ZNF330 / Fold change vs veh, ZNF330 / RFU, GPN3 / Fold change vs veh, GPN3 / RFU, C9orf123 / Fold change vs veh, C9orf123 / RFU, N4BP2L2 / Fold change vs veh, N4BP2L2 / RFU, ARFIP1 / Fold change vs veh, ARFIP1 / RFU, FAM179B / Fold change vs veh, FAM179B / RFU, BCL10 / Fold change vs veh, BCL10 / RFU, UHRF1BP1L / Fold change vs veh, UHRF1BP1L / RFU, BET1 / Fold change vs veh, BET1 / RFU, CNOT2 / Fold change vs veh, CNOT2 / RFU, ZNF268 / Fold change vs veh, ZNF268 / Fold change vs veh, ZNF507 / RFU, DGCR2 / Fold change vs veh, DGCR2 / RFU, WDSUB1 / Fold change vs veh, WDSUB1 / Fold change vs veh, HSP90B1 /// MIR3652 / RFU, ADSS / Fold change vs veh, ADSS / RFU, GK / Fold change vs veh, GK / RFU, ZNF148 / Fold change vs veh, ZNF148 / RFU, TAF9 / Fold change vs veh, TAF9 / RFU, SLC1A5 / Fold change vs veh, SLC1A5 / RFU, SLMO2 / Fold change vs veh, SLMO2 / RFU, ABCC4 / Fold change vs veh, ABCC4 / RFU, LOC101060439 /// RAP1B / Fold change vs veh, LOC101060439 /// RAP1B / RFU, RFX7 / Fold change vs veh, RFX7 / RFU, GTPBP10 / Fold change vs veh, GTPBP10 / RFU, CNEP1R1 / Fold change vs veh, CNEP1R1 / RFU, BIVM-ERCC5 /// ERCC5 / Fold change vs veh, BIVM-ERCC5 /// ERCC5 / RFU, ILF3 / Fold change vs veh, ILF3 / RFU 11762660_at / Fold change /veh 11762660_at / RFU VCAN (11757783_s_at) / Fold change /veh VCAN (11757783_s_at) / RFU DDX43 (11728927_at) / Fold change /veh DDX43 (11728927_at) / RFU KRT8 (11758188_x_at) / Fold change /veh KRT8 (11758188_x_at) / RFU NKD1 (11759106_at) / Fold change /veh NKD1 (11759106_at) / RFU SRD5A1 (11742802_a_at) / Fold change /veh SRD5A1 (11742802_a_at) / RFU TPSAB1 /// TPSB2 (11721975_s_at) / Fold change /veh TPSAB1 /// TPSB2 (11721975_s_at) / RFU GSTM3 (11746129_a_at) / Fold change /veh GSTM3 (11746129_a_at) / RFU IL23R (11737362_x_at) / Fold change /veh IL23R (11737362_x_at) / RFU TMEM51 (11727254_a_at) / Fold change /veh TMEM51 (11727254_a_at) / RFU PIWIL2 (11732686_x_at) / Fold change /veh PIWIL2 (11732686_x_at) / RFU ORM1 (11744905_x_at) / Fold change /veh ORM1 (11744905_x_at) / RFU CCDC152 (11743942_at) / Fold change /veh CCDC152 (11743942_at) / RFU ECM1 (11717891_a_at) / Fold change /veh ECM1 (11717891_a_at) / RFU IL23R (11748794_a_at) / Fold change /veh IL23R (11748794_a_at) / RFU TNFAIP8L3 (11732012_x_at) / Fold change /veh TNFAIP8L3 (11732012_x_at) / RFU MBOAT4 (11741988_at) / Fold change /veh MBOAT4 (11741988_at) / RFU 11764193_at / Fold change /veh 11764193_at / RFU TMEM53 (11763286_at) / Fold change /veh TMEM53 (11763286_at) / RFU MAGEB2 (11727129_at) / Fold change /veh MAGEB2 (11727129_at) / RFU TMEM200A (11744735_a_at) / Fold change /veh TMEM200A (11744735_a_at) / RFU CCDC152 (11751479_a_at) / Fold change /veh CCDC152 (11751479_a_at) / RFU FAM211A (11726209_a_at) / Fold change /veh FAM211A (11726209_a_at) / RFU RGS16 (11746705_a_at) / Fold change /veh RGS16 (11746705_a_at) / RFU VCAN (11755009_s_at) / Fold change /veh VCAN (11755009_s_at) / RFU RHOB (11743442_s_at) / Fold change /veh RHOB (11743442_s_at) / RFU RGS16 (11720943_a_at) / Fold change /veh RGS16 (11720943_a_at) / RFU RGS16 (11720944_at) / Fold change /veh RGS16 (11720944_at) / RFU, VPS4B / Fold change vs veh, VPS4B / RFU, CREB1 / Fold change vs veh, CREB1 / RFU, DNAJC13 / Fold change vs veh, DNAJC13 / RFU, GNAQ / Fold change vs veh, GNAQ / RFU, CDK5R1 / Fold change vs veh, CDK5R1 / RFU, ZRANB3 / Fold change vs veh, ZRANB3 / RFU, CUL4A / Fold change vs veh, CUL4A / RFU, CCNY / Fold change vs veh, CCNY / RFU, UFL1 / Fold change vs veh, UFL1 / RFU, COG3 / Fold change vs veh, COG3 / RFU, DIAPH2 / Fold change vs veh, DIAPH2 / RFU, SKA2 / Fold change vs veh, SKA2 / RFU, AFF3 / Fold change vs veh, AFF3 / RFU, LMF1 / Fold change vs veh, LMF1 / RFU, IPO11 / Fold change vs veh, IPO11 / RFU, DFFB / Fold change vs veh, DFFB / RFU, FOXP1 / Fold change vs veh, FOXP1 / RFU, CARD8 / Fold change vs veh, CARD8 / RFU, STRN3 / Fold change vs veh, STRN3 / RFU, ADK / Fold change vs veh, ADK / RFU, RASSF2 / Fold change vs veh, RASSF2 / RFU, WIPF1 / Fold change vs veh, WIPF1 / RFU, LARP1B / Fold change vs veh, LARP1B / RFU, RASA1 / Fold change vs veh, RASA1 / RFU, RB1 / Fold change vs veh, RB1 / RFU, PPFIA1 / Fold change vs veh, PPFIA1 / RFU, MAT2A / Fold change vs veh, MAT2A / RFU, CCT5 / Fold change vs veh, CCT5 / RFU, WDR92 / Fold change vs veh, WDR92 / RFU, CUX1 / Fold change vs veh, CUX1 / RFU, TTC7A / Fold change vs veh, TTC7A / RFU, TMEM135 / Fold change vs veh, TMEM135 / RFU, DEPTOR / Fold change vs veh, DEPTOR / RFU, CPM / Fold change vs veh, CPM / RFU, DNAJB6 / Fold change vs veh, DNAJB6 / RFU, CACNA2D3 / Fold change vs veh, CACNA2D3 / RFU, DTX4 / Fold change vs veh, DTX4 / RFU, TFCP2 / Fold change vs veh, TFCP2 / RFU, GMCL1 /// GMCL1P1 / Fold change vs veh, GMCL1 /// GMCL1P1 / RFU, AEBP2 / Fold change vs veh, AEBP2 / RFU, SNHG1 /// SNORD22 /// SNORD25 /// SNORD26 /// SNORD27 /// SNORD28 /// SNORD29 /// SNORD31 / Fold change vs veh, SNHG1 /// SNORD22 /// SNORD25 /// SNORD26 /// SNORD27 /// SNORD28 /// SNORD29 /// SNORD31 / Fold change (Aza/veh), C12orf56 (ProbeSet 11735607_a_at) / Fold change (ACY-1035/veh), C12orf56 (ProbeSet 11735607_a_at) / Fold change (Aza/veh), FGFR1OP (ProbeSet 11751329_s_at) / Fold change (ACY-1035/veh), FGFR1OP (ProbeSet 11751329_s_at) / Fold change (Aza/veh), VPS36 (ProbeSet 11739960_a_at) / Fold change (ACY-1035/veh), VPS36 (ProbeSet 11739960_a_at) / RFU SYPL1 (11715823_x_at) / Fold change /veh SYPL1 (11715823_x_at) / RFU IGFBP7 (11715501_s_at) / Fold change /veh IGFBP7 (11715501_s_at) / RFU REEP3 (11722064_at) / Fold change /veh REEP3 (11722064_at) / RFU IGLL1 (11728026_x_at) / Fold change /veh IGLL1 (11728026_x_at): dose or concentration left out as unconfirmed. The conditions noted are these: ProbeSet 11724877_a_at; LIST D.

As for `Nc1ncn([C@@H]2O[C@H](CO)[C@@H](O)[C@H]2O)c(=O)n1` [azacitidine], the “Fold change vs veh, AEBP2” value turned out to be 0.82.

These data come from paper PMC5218480 (PLoS ONE, 2017).
